According to patent EP0465913B1, “Diaminotrifluoromethylpyrimidine derivatives, process for their production and phospholipase A2 inhibitor containing them” (ISHIHARA SANGYO KAISHA, LTD., priority 1990, dated 1992):
Like-named read-outs stand apart in the source and are kept apart here.

What was measured:
[1] = molecular target: T1, Porcine pancreatic phospholipase A2 (Sus scrofa, UniProt P00592); assay: Phospholipase A2 inhibitory activity, method B (L-α-dipalmitoylphosphatidylcholine substrate); assay type: biochemical; conditions: 37°C for 30 minutes; for inhibition at 1000 ppm: 1,000 ppm, read-out: % inhibition of PLA2 (1,000 ppm)
T1 construct: purchased Boehringer Mannheim·Yamanouchi K.K. 161454·122416
T1 sequence (P00592 23-146): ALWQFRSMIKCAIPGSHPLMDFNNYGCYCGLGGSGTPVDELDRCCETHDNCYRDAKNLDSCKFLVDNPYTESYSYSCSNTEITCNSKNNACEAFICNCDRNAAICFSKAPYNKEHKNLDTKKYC
Procedure: To a solution prepared by dissolving 9.2 mg of L-α-dipalmitoylphosphatidylcholine (manufactured by Nichiyu Liposome K.K.) in 0.5 ml of chloroform, a solution prepared by dissolving 32 mg of sodium cholate (manufactured by Wako Pure Chemical Industries, Ltd.) in 0.5 ml of methanol, was added, followed by mixing. The solvent of the mixture was removed under a nitrogen stream, and then 2.5 ml of a 250 mM sodium chloride solution [prepared by dissolving sodium chloride in a 100 mM Tris-HCl buffer solution {tris(hydroxymethyl)aminomethane (manufactured by Nacalai Tesque K.K.) was adjusted to pH8.0 with hydrochloric acid}] was added thereto, and the mixture was dissolved under stirring to obtain a substrate.
Porcine pancreatic phospholipase A2 [(161454·122416) manufactured by Boehringer Mannheim·Yamanouchi K.K.] was used.
To a 96 well microtitration plate, 20 µl of a solution containing calcium chloride, bovine serum alubmin (manufactured by Sigma Chemical, Co.) and a Tris-HCl buffer solution (pH8.0) at concentrations of 25 mM, 4.5 mg/ml and 100 mM, respectively, 5 µl of a solution prepared by dissolving 10 mg of a test compound in 500 µl of diemthylsulfoxide, followed by an addition of 500 µl of a 200 mM Tris-HCl buffer solution, 5 µl of an enzyme solution (10 µg/ml) [prepared by dissolving the enzyme in a bovine serum alubmin solution (prepared by dissolving bovine serum alubmin in a 100 mM Tris-HCl buffer solution at a concentration of 1 mg/ml)] and 20 µl of the substrate, were added and reacted at 37°C for 30 minutes. After termination of the reaction, the released free fatty acid was quantitatively analyzed in accordance with the ACS-ACOD (acyl CoA synthetase-acyl CoA oxidase) method [a kit of NEFA C test wako (manufactured by Wako Pure Chemical Industries, Ltd.) was used]. The quantitative analysis was made by means of Microplate ELISA Reader (Model 2550EIA Reader, manufactured by Bio-Rad Laboratories) at a wavelength of 540 nm. Separately, such experiments as mentioned above, were carried out at various concentrations (1 µg/ml, 0.75 µg/ml, 0.5 µg/ml and 0.25 µg/ml) of phospholipase A2 without a test compound. Then, the concentration of the free fatty acid versus the concentration of phospholipase A2 was plotted.
From this standard curve, the apparent concentration of phospholipase A2 in the case with a test compound, was read. Then, the percent inhibition of the enzyme was calculated by the following formula. Percent inhibition (%) = (l -(A)/(B)) x 100 [formula] • A: Apparent enzyme concentration when a test compound is added. • B: True enzyme concentration when a test compound is added.

[2] = test system: carrageenin edema; assay: Inhibitory activity on carrageenin edema; assay type: in vivo, Wistar male rats; conditions: rat, paw swelling volume three hours after carrageenin; for Inhibition rate (%): dose 50 mg/kg orally
Procedure: Using Wistar male rats (body weight: about 100 g), each test group consisted of 5 rats. A test compound was mixed with Tween 80 [polyoxyethylenesorbitan monooleate (manufactured by Nacalai Tesque K.K.)], and distilled water was added thereto to obtain a 2% Tween 80 suspension, or it was dissolved in the form of a salt in water to obtain an aqueous solution. Either the suspension or the aqueous solution was orally administered in an amount of 200 mg/kg, 100 mg/kg, 50 mg/kg or 25 mg/kg. One hour later, 0.1 ml of a 1% λ-carrageenin solution dissolved in a physiological saline was injected subcutaneously to the right hind paw of each rat to cause inflamation. Three hours later, the paw volume was measured by a paw volume measuring device (manufactured by Ugobasiee K.K.). A swelling volume was obtained from the difference from the value before the inflammation. Inhibition rate (%) = (l -(F)/(E)) x 100 [formula] • F: Average swelling volume in the group to which a test compound was administered. • E: Average swelling volume in the control group.

[3] = test system: experimental acute pancreatitis model; assay: Effects against acute pancreatitis (Test Example 8, closed duodenal loop method, lesion scores); assay type: in vivo, Crj-CD male rats; conditions: Rattus norvegicus, 10 mg/kg single intravenous injection, sodium salt, 6 hours after ventrotomy
Procedure: Using Crj-CD male rats, each test group consisted of 3 rats. An experimental acute pancreatitis model was prepared by a closed duodenal loop method under anethesia with halothane (manufactured by Hoechst Japan) and nitrous oxide (manufactured by Sumitomo Seika K.K.) applied by a general inhalation anesthesia machine (Model EM2 and halothane evaporator F-Model). Each compound (subjected to the test in the form of a sodium salt) was continuously intravenously injected into the tail vein in an amount of 0.4 ml/100 g to 0.6 ml/100 g at a rate of 0.05 ml per minute by a pump (Technicon AA II Proportioning Pump III, manufactured by Technicon Instruments Corporation) or rapidly intravenously injected. No injection was made to a control group. Gross pathological examination was conducted upon expiration of 6 hours after the ventrotomy in the case of the group to which the compound was administered. With respect to each of four lesions among pancreatic lesions i.e. petechia, ecchymosis, pancreatic necrosis and abdominal fatty necrosis, the grade and the distribution of lesions were scored with five grades of 0, 0.5, 1, 2 and 3 (severe lesions are 3). The sum of all lesions was designated as scores of pancreatitis lesions, and the sum of the score of petechia and the score of ecchymosis only was designated as scores of hemorrhagic lesions. The pancreatitis inhibition rate (%) and the hemorrhage inhibition rate (%) were obtained by the following formulas, and the results are shown in Table 13. Pancreatitis inhibition rate (%) = (l -(H)/(G)) x 100 [formula] • H: Scores of pancreatitis lesions of the group to which a test compound was administered. • G: Scores of pancreatitis lesions of the control group. Hemorrhage inhibition rate (%) = (l -(J)/(I)) x 100 [formula] • J: Scores of hemorrhagic lesions of the group to which a test compound was administered. • I: Scores of hemorrhagic lesions of the control group.

[4] = read-out: Inhibition rate of hemorrhagic lesions (%)
[5] = read-out: Inhibition rate of pancreatitis lesions (%)

inhibition at 1000 ppm [1] [%] | SMILES | inhibition in vivo at 10 mg/kg [3, 4] [%] | inhibition in vivo at 10 mg/kg [3, 5] [%] | other results
84 | O=C(Nc1cc(C(F)(F)F)cnc1NS(=O)(=O)c1cccs1)C1CCCCC1 [compound 126] |  |  | 
 | CCOC(=O)NC(=S)Nc1cc(C(F)(F)F)cnc1NS(=O)(=O)c1ccc(C)cc1 [Compound No. 25] |  |  | inhibition in vivo at 200 mg/kg ([2]; po, 3 h, dose 200 mg/kg orally, read-out: Inhibition rate (%)): 27%
61 | CC(C)S(=O)(=O)Nc1ncc(C(F)(F)F)cc1NC(=O)c1cccc(F)c1 [compound 104] |  |  | Inhibition rate (%) [2]: 48%
 | CCCCS(=O)(=O)Nc1ncc(C(F)(F)F)cc1NC(=O)C1CC1 [compound 107] | 63 | 61 | 
82 | CS(=O)(=O)Nc1ncc(C(F)(F)F)cc1NC(=O)C1CCCCCC1 [compound 67] |  |  | inhibition in vivo at 25 mg/kg ([2]; po, 3 h, dose 25 mg/kg orally, read-out: Inhibition rate (%)): 19%
41 | CN(C)S(=O)(=O)Nc1ncc(C(F)(F)F)cc1NC(=O)C1CCCC1 [compound 111] |  |  | 
78 | CCCCCCC(=O)Nc1cc(C(F)(F)F)cnc1NS(C)(=O)=O [compound 124] | 51 | 51 | 
33 | CS(=O)(=O)Nc1ncc(C(F)(F)F)cc1NC(=O)c1ccco1 [compound 85] | 57 | 67 | 
 | CS(=O)(=O)Nc1ncc(C(F)(F)F)cc1NC(=O)C(F)(F)C(F)(F)F [compound 260] |  |  | % inhibition of PLA2 (1,000 ppm) [1]: 53%
77 | CS(=O)(=O)Nc1ncc(C(F)(F)F)cc1NC(=O)C=Cc1ccccc1 [compound 71] |  |  | 
56 | Cc1cc(C)cc(C(=O)Nc2cc(C(F)(F)F)cnc2NS(C)(=O)=O)c1 [compound 122] | 51 | 51 | 
 | O=C(Nc1ncc(C(F)(F)F)cc1NC(=O)C1CCCCC1)c1ccccc1 [compound 150] |  |  | Inhibition rate (%) [2]: 23%
 | CS(=O)(=O)Nc1ncc(C(F)(F)F)cc1NC(=O)c1ccc2c(c1)OCC(F)(F)O2 [Compound No. 35] | 35 | 35 | 
51 | CC(Cl)(Cl)C(=O)Nc1cc(C(F)(F)F)cnc1NS(C)(=O)=O [compound 89] |  |  | 
67 | COc1ccc(S(=O)(=O)Nc2ncc(C(F)(F)F)cc2NC(=O)c2cccs2)cc1 [compound 109] |  |  | 
86 | CC(C)S(=O)(=O)Nc1ncc(C(F)(F)F)cc1NC(=O)C1CCCCC1 [compound 103] |  |  | 
52 | COS(=O)(=O)Nc1ncc(C(F)(F)F)cc1NC(=O)C1CCCCC1 [compound 115] |  |  | 
94 | CCc1ccc(C(=O)Nc2cc(C(F)(F)F)cnc2NS(C)(=O)=O)cc1 [compound 81] | 49 | 58 | 
61 | CCCCS(=O)(=O)Nc1ncc(C(F)(F)F)cc1NC(=O)C(F)(F)Cl [compound 108] |  |  | 
69 | COS(=O)(=O)Nc1ncc(C(F)(F)F)cc1NC(=O)c1ccc2c(c1)CCC2 [compound 116] |  |  | 

inhibition at 1000 ppm [1] [%] | SMILES | inhibition in vivo at 10 mg/kg [3, 4] [%] | inhibition in vivo at 10 mg/kg [3, 5] [%] | other results
33 | C=CCCC(=O)Nc1cc(C(F)(F)F)cnc1NS(C)(=O)=O [compound 74] | 66 | 67 | 
83 | CCS(=O)(=O)Nc1ncc(C(F)(F)F)cc1NC(=O)c1ccc(C(F)(F)F)cc1 [compound 100] |  |  | 
61 | CS(=O)(=O)Nc1ncc(C(F)(F)F)cc1NC(=O)c1ccc(F)cc1F [compound 76] |  |  | 
84 | CCOS(=O)(=O)Nc1ncc(C(F)(F)F)cc1NC(=O)c1ccc2c(c1)CCC2 [compound 118] |  |  | 
81 | CS(=O)(=O)Nc1ncc(C(F)(F)F)cc1NC(=O)C#Cc1ccccc1 [compound 75] |  |  | 
86 | CCS(=O)(=O)Nc1ncc(C(F)(F)F)cc1NC(=O)c1cccc(C(F)(F)F)c1 [compound 99] |  |  | 
53 | CS(=O)(=O)Nc1ncc(C(F)(F)F)cc1NC(=O)CC1CCCC1 [compound 62] | 45 | 61 | 
83 | CS(=O)(=O)Nc1ncc(C(F)(F)F)cc1NC(=O)c1cc2c(s1)CCC2 [compound 88] |  |  | 
75 | O=C(Nc1cc(C(F)(F)F)cnc1NS(=O)(=O)C(F)(F)F)c1cccs1 [compound 92] |  |  | 
65 | CCOS(=O)(=O)Nc1ncc(C(F)(F)F)cc1NC(=O)C1CCCCC1 [compound 117] | 30 | 30 | 
79 | CN(C)S(=O)(=O)Nc1ncc(C(F)(F)F)cc1NC(=O)C(F)(F)C(F)(F)F [compound 112] |  |  | 
64 | Cc1ccc(C(=O)Nc2cc(C(F)(F)F)cnc2NS(C)(=O)=O)s1 [compound 83] | 53 | 51 | 
56 | CS(=O)(=O)Nc1ncc(C(F)(F)F)cc1NC(=O)c1ccsc1 [compound 84] |  |  | 
79 | CS(=O)(=O)Nc1ncc(C(F)(F)F)cc1NC(=O)C(=O)c1ccccc1 [compound 90] |  |  | 
 | CS(=O)(=O)Nc1ncc(C(F)(F)F)cc1NC(=O)c1ccc2c(c1)OCCO2 [compound 34] | 30 | 30 | 
40 | CC(C)=CC(=O)Nc1cc(C(F)(F)F)cnc1NS(C)(=O)=O [compound 70] |  |  | 
61 | CS(=O)(=O)Nc1ncc(C(F)(F)F)cc1NC(=O)CCc1ccccc1 [compound 64] | 60 | 68 | 
88 | CCS(=O)(=O)Nc1ncc(C(F)(F)F)cc1NC(=O)C1CCCCCC1 [compound 97] | 35 | 35 | 
85 | CCS(=O)(=O)Nc1ncc(C(F)(F)F)cc1NC(=O)C1CC=CCC1 (centres unmarked) [compound 95] |  |  | 
89 | O=C(Nc1cc(C(F)(F)F)cnc1NS(=O)(=O)c1cccs1)c1ccc2c(c1)CCC2 [compound 127] |  |  | 
